In patent publication US11124785B2, “Rothia subtilisins, S8A family proteases, as therapeutic enzymes for application in gluten intolerance disorders” (TRUSTEES OF BOSTON UNIVERSITY, priority 2016, dated 2021):
Each block holds one molecule with its values, some of them ahead of it.

Legend:
Assay type in all cases: biochemical
[1] = test system: R5 epitopes (QQPFP and related pentapeptides) in mixed gliadins; experiment: R5 ELISA, gluten epitope elimination in gliadin digests; conditions: gliadins 250 μg/ml, enzyme 57 μg/ml
Protocol: FIG. 8E and FIG. 8F show the assessment of the survival of epitopes in the gliadin-NattoK degradation mixture employing the R5 ELISA (FIG. 8E) or G12 ELISA (FIG. 8F) assays. Epitope abolishment in Mixed gliadins (250 μg/ml) were incubated with NattoK (57 μg/ml) for 0, 15, 30 and 120 min and then assayed by the R5 ELISA or G12 ELISA.
R5 and G12 ELISA assays—Gluten epitope elimination in the gliadin-Rmep and gliadin-subtilisin A digests was assessed using two sandwich ELISA assays employing the R5 monoclonal antibody (RIDASCREEN Gliadin, R-Biopharm, Darmstadt, Germany) or the G12 monoclonal antibody (AgraQuant® ELISA Gluten G12, Romer labs, Union, Mo.). To prevent high background values, the R5 plate wells were blocked with 1% skim milk in PBS prior to incubation with the samples. The assays were performed according to the manufacturers' instructions and as described (21, 24).
To further investigate this, the time courses of degradation of mixed gliadins and the highly immunogenic 33-mer α-gliadin peptide were determined. Furthermore, epitope elimination was monitored by two ELISA assays employing the R5 antibody recognizing QQPFP (SEQ ID NO: 40) and related pentapeptides (27, 28) and the G12 antibody recognizing QPQLPY (SEQ ID NO: 22) contained in the 33-mer peptide (29, 30). Data obtained with Rmep are shown in FIG. 5, and with subtilisin A in FIG. 6.

Z-PFP-pNA = experiment: Hydrolysis of paranitroanilide-derivatized substrate Z-PFP-pNA; conditions: substrate 200 μM, pH 8.0 (data not shown)
Protocol: (§1) Hydrolysis of paranitroanilide-derivatized substrates—Paranitroanilide (pNA)-derivatized tripeptide substrates were chemically synthesized at >90% purity (21st Century Biochemicals, Marlborough, Mass.). The substrates obtained were Z-YPQ-pNA, Z-QQP-pNA, Z-LPY-pNA, Z-PFP-pNA, Z-PPF-pNA, where Z=benzyloxycarbonyl, Y=tyrosine, P=proline, Q=glutamine, L=leucine, and F=phenylalanine Suc-AAPF-pNA (SEQ ID NO: 4) was obtained from Sigma, where Suc=N-succinyl and A=alanine. The peptides were dissolved in 75-100% DMSO at 10 mM, and were used at a final concentration of 200 μM in 50 mM TrisHCl pH 8.0. Purified Rothia enzyme or subtilisin A from Bacillus licheniformis (Sigma) were tested at final concentrations of 1 μg/ml. Some experiments were conducted in the presence of inhibitors 4-(2-Aminoethyl) benzenesulfonyl fluoride (AEBSF), Aprotinin, E-64, EDTA, phenylmethanesulfonyl fluoride (PMSF) and Eglin C, which were tested at final concentrations of 10 mM, 0.08 mM, 0.1 mM, 1.5 mM, 1 mM, and 0.06-1.2 μM, respectively. Enzymes were preincubated with the inhibitors for 20 min before adding Suc-AAPF-pNA (SEQ ID NO: 4). Substrate hydrolysis was monitored for 10 h at 405 nm using a Genios microtiter plate reader (Tecan, Männedorf, Switzerland) in the kinetic mode at 37° C.

[2] = test system: α-gliadin derived 33-mer peptide; experiment: Degradation of the 33-mer peptide (RP-HPLC); conditions: 33-mer 250 μg/ml, enzyme 57 μg/ml
Protocol: FIG. 8D is a representative chromatogram of the RP-HPLC analysis of the degradation of the gliadin-derived 33-mer (250 μg/ml) incubated for 0, 15, 30 and 120 min with NattoK 57 μg/ml).
Degradation of mixed gliadins and the 33-mer peptide—Mixed gliadins were obtained from Sigma. A synthetic highly immunogenic α-gliadin derived 33-mer peptide (26) was synthesized at a purity of >90% (21st Century Biochemicals). Mixed gliadins or the 33-mer peptide (each at final concentration 250 μg/ml) were incubated with Rmep or subtilisin A (each at 57 μg/ml) in 50 mM TrisHCl, pH 8.0. After t=0, 15 min, 30 min, and 2 h, 100 μl sample aliquots were removed and boiled. Gliadin degradation was assessed by 4-12% SDS-PAGE followed by Coomassie staining, and 33-mer degradation was determined by RP-HPLC.
Reversed-phase high performance liquid chromatography (RP-HPLC)—Separation of the 33-mer peptide and its fragments was achieved by RP-HPLC, using buffer A (0.1% trifluoroacetic acid) and buffer B (0.1% trifluoroacetic acid in 80% acetonitrile) at a gradient of 0-55% buffer B over 75 min time interval. The equipment used was an HPLC Model 715 (Gilson, Middleton, Wis.) and a C-18 column (TSK-GEL […], ODS-120T, TOSOHaas, Montgomeryville, Pa.) (22, 25).

Z-PPF-pNA = experiment: Hydrolysis of paranitroanilide-derivatized substrate Z-PPF-pNA; conditions: fifty-fold increased enzyme concentrations (data not shown)
Protocol: as §1

Suc-AAPF-pNA = experiment: pH activity profile of Rmep with Suc-AAPF-pNA; conditions: Suc-AAPF-pNA 200 μM; citric acid/phosphate buffer mixtures pH 2-12
Protocol: Activity of Rmep in 0.1M Citric acid/0.2M phosphate buffer mixtures, pH 2-12, was measured with Suc-AAPF-pNA (SEQ ID NO: 4) (200 μM) as the substrate.
as §1, with “Enzymes were preincubated with the inhibitors for 20 min before adding Suc-AAPF-pNA (SEQ ID NO: 4).” left out

FRET substrate PQPQPQ = experiment: FRET substrate hydrolysis, PQPQPQ; conditions: substrate 100 μM, Rmep 1 μg/ml, subtilisin A 0.5 μg/ml, pH 8.0
Protocol: FIG. 4D and FIG. 4E are representative graphs of the hydrolysis of gliadin-derived FRET substrates. FRET substrates containing QPQLPY (SEQ ID NO: 22), PQPQPQ (SEQ ID NO: 23) and QGSFQP (SEQ ID NO: 24), each at 100 μM, were incubated with Rmep […] and subtilisin A (FIG. 4E), at 1 μg/ml and 0.5 μg/ml, respectively. Controls were boiled Rmep and subtilisin A incubated with PQPQLPY (+) (SEQ ID NO: 25), PQPQPQ (⋄) (SEQ ID NO: 23) and QGSFQP (*) (SEQ ID NO: 24) (no activity, baseline).
FRET substrate hydrolysis—Three fluorescence resonance energy transfer (FRET) substrates comprising the hexapeptides QPQLPY (SEQ ID NO: 22), PQPQPQ (SEQ ID NO: 23) and QGSFQP (SEQ ID NO: 24) were synthesized with at the N-terminus the HILYTE FLUOR™ 488 label, and at the C-terminus with K(QXL520) (Anaspec, Fremont, Calif.). Rmep (1 μg/ml) and subtilisin A (0.5 μg/ml) were incubated with the substrates (100 μM) in 50 mM TrisHCl pH 8.0. Samples were incubated at 37° C. and fluorescence increase, indicating hydrolysis, was measured every 5 min for 30 min, and every 10 min for the next 30 min, at λex 485 nm and λem 520 nm, using a Genios microtiter plate reader in the kinetic mode.

R5 epitope elimination (reduction in antibody binding) at t=0 [1]: 46% | pH range over which the enzyme was active (Suc-AAPF-pNA): 6.0-10.0
Molecule: Rmep: DEAE pooled fraction F2 of R. mucilaginosa ATCC 25296 extract with highest gluten-degrading enzyme activity; contains subtilisins C6R5V9_9MICC and C6R5W1_9MICC
R5 epitopes eliminated after 15 min ([1]; 15 min): virtually all | hydrolysis of Z-PFP-pNA (Z-PFP-pNA): not hydrolyzed | incubation time within which 33-mer peptide degradation was completed ([2]; pH 8.0): ≤ 30 min | hydrolysis of Z-PPF-pNA (Z-PPF-pNA): not | hydrolysis of FRET substrate PQPQPQ (FRET substrate PQPQPQ): rapidly hydrolyzed

R5 epitope elimination (reduction in antibody binding) at t=0 [1]: 90%
B1: subtilisin A: subtilisin A from Bacillus licheniformis (Sigma) (protein, listed as Bacillus licheniformis)
chain: MMRKKSFWLGMLTAFMLVFTMAFSDSASAAQPAKNVEKDYIVGFKSGVKTASVKKDIIKESGGKVDKQFRIINAAKAKLDKEALKEVKNDPDVAYVEEDHVAHALAQTVPYGIPLIKADKVQAQGFKGANVKVAVLDTGIQASHPDLNVVGGASFVAGEAYNTDGNGHGTHVAGTVAALDNTTGVLGVAPSVSLYAVKVLNSSGSGTYSGIVSGIEWATTNGMDVINMSLGGPSGSTAMKQAVDNAYARGVVVVAAAGNSGSSGNTNTIGYPAKYDSVIAVGAVDSNSNRASFSSVGAELEVMAPGAGVYSTYPTSTYATLNGTSMASPHVAGAAALILSKHPNLSASQVRNRLSSTATYLGSSFYYGKGLINVEAAAQ
R5 epitope elimination within 15 min of incubation ([1]; 15 min): 100% | hydrolysis of Z-PFP-pNA (Z-PFP-pNA): not hydrolyzed | 33-mer peptide degradation after 2 h of incubation ([2]; 2 h): 74% | hydrolysis of Z-PPF-pNA (Z-PPF-pNA): hydrolyzed | hydrolysis of FRET substrate PQPQPQ (FRET substrate PQPQPQ): highest activity
